14 molecules from patent US20250382332A1, “NOVEL ALPHA-FACTOR BASED PEPTIDES WITH ANTIFUNGAL ACTIVITY” (INVAIO SCIENCES, INC., priority 2024, published 2025) can be followed below.

Molecules are shown by their SMILES. Peptide text beside a SMILES is read from it.

Broadly, the Inhibition is the percentage by which the read-out fell short of the control.

For the assay, the system named is Botrytis cinerea (B05.10). In words: Resazurin antifungal assay of 180 alpha-factor peptide variants towards Botrytis (Example 2). In kind it is cell-based. The settings on record: % inhibition of fungal growth, Botrytis conidia, resazurin; for Inhibition at 10 μM: peptide 10 μM; for Inhibition at 20 μM: peptide 20 μM; for Inhibition at 50 μM: peptide 50 μM; for Inhibition at 100 μM: peptide 100 μM. Put shortly: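 B. cinerea B05.10 conidia (5000/well) were exposed to peptides at 100, 50, 20, 15 and 10 μM final for 24 h at 20° C. Resazurin was then added and fluorescence read at 570/620 nm. Percent growth inhibition was calculated against conidia-only wells, with four technical replicates.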
(Resazurin is reduced to fluorescent resorufin, in cell work by metabolically active cells.)

With `CSCC[C@H](NC(=O)[C@@H]1CCCN1C(=O)[C@H](CCC(N)=O)NC(=O)CNC(=O)[C@@H]1CCCN1C(=O)[C@H](CCCCN)NC(=O)[C@H](Cc1ccccc1)NC(=O)[C@H](CC(N)=O)NC(=O)[C@H](CC(C)C)NC(=O)[C@H](Cc1ccc(O)cc1)NC(=O)[C@H](CCCCN)NC(=O)[C@@H](N)Cc1c[nH]c2ccccc12)C(=O)N[C@@H](Cc1ccc(O)cc1)C(=O)O` [compound 100] (H-WKYLNFKPGQPMY-OH; N-terminus and C-terminus assumed), the “Inhibition at 10 μM” value was less than 90%, the “Inhibition at 20 μM” value is on record as less than 90%, the “Inhibition at 50 μM” value was determined as 93.45% and the “Inhibition at 100 μM” value turned out to be 100%.
As for `CSCC[C@H](NC(=O)[C@@H]1CCCN1C(=O)[C@H](CCC(N)=O)NC(=O)CNC(=O)[C@@H]1CCCN1C(=O)[C@H](CCCCN)NC(=O)[C@H](Cc1ccccc1)NC(=O)[C@H](CCCNC(=N)N)NC(=O)[C@H](CC(C)C)NC(=O)[C@@H](NC(=O)[C@H](Cc1c[nH]cn1)NC(=O)[C@@H](N)Cc1c[nH]c2ccccc12)C(C)C)C(=O)N[C@@H](Cc1ccc(O)cc1)C(=O)O` [compound 101] (H-WHVLRFKPGQPMY-OH; N-terminus and C-terminus assumed), the “Inhibition at 10 μM” value is on record as less than 90%, the “Inhibition at 20 μM” value was less than 90%, the “Inhibition at 50 μM” value was 90.50% and the “Inhibition at 100 μM” value came out at 100%.
For `CSCC[C@H](NC(=O)[C@@H]1CCCN1C(=O)[C@H](CCC(N)=O)NC(=O)CNC(=O)[C@@H]1CCCN1C(=O)[C@H](CCCCN)NC(=O)[C@H](CC(C)C)NC(=O)[C@@H](NC(=O)[C@H](CC(C)C)NC(=O)[C@H](Cc1ccc(O)cc1)NC(=O)[C@H](Cc1c[nH]cn1)NC(=O)[C@@H](N)CCCCN)[C@@H](C)O)C(=O)N[C@@H](Cc1ccc(O)cc1)C(=O)O` [compound 102] (H-KHYLTLKPGQPMY-OH; N-terminus and C-terminus assumed), the “Inhibition at 10 μM” value is reported as less than 90%, the “Inhibition at 20 μM” value is recorded as less than 90%, the “Inhibition at 50 μM” value was less than 90% and the “Inhibition at 100 μM” value is recorded as 98.51%.
For the molecule `CSCC[C@H](NC(=O)[C@@H]1CCCN1C(=O)[C@H](CCC(N)=O)NC(=O)CNC(=O)[C@@H]1CCCN1C(=O)[C@H](CCCCN)NC(=O)[C@H](CC(C)C)NC(=O)[C@H](C)NC(=O)[C@H](CC(C)C)NC(=O)[C@H](Cc1ccc(O)cc1)NC(=O)[C@H](Cc1c[nH]cn1)NC(=O)[C@@H](N)CCCCN)C(=O)N[C@@H](Cc1ccc(O)cc1)C(=O)O` [compound 103] (H-KHYLALKPGQPMY-OH; N-terminus and C-terminus assumed), the “Inhibition at 10 μM” value was less than 90%, the “Inhibition at 20 μM” value is less than 90%, the “Inhibition at 50 μM” value was less than 90% and the “Inhibition at 100 μM” value stood at 98.77%.
In the case of `CC[C@H](C)[C@H](NC(=O)CNC(=O)[C@H](CCCNC(=N)N)NC(=O)[C@@H](N)CCCCN)C(=O)N[C@@H](CC(N)=O)C(=O)N[C@@H](CC(C)C)C(=O)N[C@@H](CCCCN)C(=O)N1CCC[C@H]1C(=O)NCC(=O)N[C@@H](CCC(N)=O)C(=O)N1CCC[C@H]1C(=O)N[C@@H](CCSC)C(=O)N[C@@H](Cc1ccc(O)cc1)C(=O)O` [compound 104] (H-KRGINLKPGQPMY-OH; N-terminus and C-terminus assumed), the “Inhibition at 10 μM” value is given as less than 90%, the “Inhibition at 20 μM” value was less than 90%, the “Inhibition at 50 μM” value is reported as less than 90% and the “Inhibition at 100 μM” value stood at 99.59%.
For `CC[C@H](C)[C@H](NC(=O)[C@H](Cc1c[nH]cn1)NC(=O)[C@@H](N)Cc1c[nH]c2ccccc12)C(=O)N[C@@H](CC(C)C)C(=O)N[C@@H](CCCNC(=N)N)C(=O)N[C@@H](Cc1ccccc1)C(=O)N[C@@H](CCCCN)C(=O)N[C@@H](CC(N)=O)C(=O)NCC(=O)N[C@@H](CCSC)C(=O)N1CCC[C@H]1C(=O)N[C@@H](CCSC)C(=O)N[C@@H](Cc1ccc(O)cc1)C(=O)O` [compound 105] (H-WHILRFKNGMPMY-OH; N-terminus and C-terminus assumed), the “Inhibition at 10 μM” value is on record as less than 90%, the “Inhibition at 20 μM” value is less than 90%, the “Inhibition at 50 μM” value was less than 90% and the “Inhibition at 100 μM” value is 100%.
As for `CSCC[C@H](NC(=O)[C@@H]1CCCN1C(=O)[C@H](CCC(=O)O)NC(=O)CNC(=O)[C@H](CCCCN)NC(=O)[C@H](CCCCN)NC(=O)[C@H](CC(C)C)NC(=O)[C@H](CCC(N)=O)NC(=O)[C@@H](NC(=O)[C@H](Cc1c[nH]c2ccccc12)NC(=O)[C@H](Cc1c[nH]cn1)NC(=O)[C@@H](N)Cc1c[nH]c2ccccc12)C(C)C)C(=O)N[C@@H](Cc1ccc(O)cc1)C(=O)O` [compound 106] (H-WHWVQLKKGEPMY-OH; N-terminus and C-terminus assumed), the “Inhibition at 10 μM” value is less than 90%, the “Inhibition at 20 μM” value is less than 90%, the “Inhibition at 50 μM” value was less than 90% and the “Inhibition at 100 μM” value was found to be 100%.
Take `CSCC[C@H](NC(=O)[C@@H]1CCCN1C(=O)[C@H](CCC(N)=O)NC(=O)CNC(=O)[C@@H]1CCCN1C(=O)[C@H](CCCCN)NC(=O)[C@H](CC(C)C)NC(=O)[C@H](CO)NC(=O)[C@H](CC(C)C)NC(=O)[C@H](Cc1ccccc1)NC(=O)[C@H](Cc1c[nH]cn1)NC(=O)[C@@H](N)CCCCN)C(=O)N[C@@H](Cc1ccc(O)cc1)C(=O)O` [compound 107] (H-KHFLSLKPGQPMY-OH; N-terminus and C-terminus assumed): the “Inhibition at 10 μM” value was less than 90%, the “Inhibition at 20 μM” value is listed as less than 90%, the “Inhibition at 50 μM” value is recorded as less than 90% and the “Inhibition at 100 μM” value is given as 98.74%.
Take `CSCC[C@H](NC(=O)[C@@H]1CCCN1C(=O)[C@H](CCC(N)=O)NC(=O)CNC(=O)[C@H](Cc1ccc(O)cc1)NC(=O)[C@H](CC(N)=O)NC(=O)[C@H](CC(C)C)NC(=O)[C@H](CCCCN)NC(=O)[C@H](CC(C)C)NC(=O)[C@H](Cc1c[nH]c2ccccc12)NC(=O)[C@H](Cc1c[nH]cn1)NC(=O)[C@@H](N)Cc1c[nH]c2ccccc12)C(=O)N[C@@H](Cc1ccc(O)cc1)C(=O)O` [compound 108] (H-WHWLKLNYGQPMY-OH; N-terminus and C-terminus assumed): the “Inhibition at 10 μM” value is less than 90%, the “Inhibition at 20 μM” value is given as less than 90%, the “Inhibition at 50 μM” value is less than 90% and the “Inhibition at 100 μM” value was 100%.
As to `CC[C@H](C)[C@H](NC(=O)[C@H](CCC(N)=O)NC(=O)[C@H](CC(C)C)NC(=O)[C@H](Cc1c[nH]c2ccccc12)NC(=O)[C@H](CCCNC(=N)N)NC(=O)[C@@H](N)CCCCN)C(=O)N[C@@H](CCCNC(=N)N)C(=O)N1CCC[C@H]1C(=O)NCC(=O)N[C@@H](CCC(=O)O)C(=O)N1CCC[C@H]1C(=O)N[C@@H](CCSC)C(=O)N[C@@H](Cc1ccc(O)cc1)C(=O)O` [compound 109] (H-KRWLQIRPGEPMY-OH; N-terminus and C-terminus assumed), the “Inhibition at 10 μM” value is given as less than 90%, the “Inhibition at 20 μM” value is given as less than 90%, the “Inhibition at 50 μM” value is less than 90% and the “Inhibition at 100 μM” value is 98.64%.
As for `CC[C@H](C)[C@H](NC(=O)[C@H](CO)NC(=O)[C@H](CC(C)C)NC(=O)[C@H](Cc1c[nH]c2ccccc12)NC(=O)[C@H](Cc1c[nH]cn1)NC(=O)[C@@H](N)Cc1c[nH]c2ccccc12)C(=O)N[C@@H](CCCCN)C(=O)N1CCC[C@H]1C(=O)NCC(=O)N[C@@H](CCC(N)=O)C(=O)NCC(=O)N[C@@H](CCSC)C(=O)N[C@@H](Cc1ccc(O)cc1)C(=O)O` [compound 110] (H-WHWLSIKPGQGMY-OH; N-terminus and C-terminus assumed), the “Inhibition at 50 μM” value is given as less than 90% and the “Inhibition at 100 μM” value came out at 97.94%.
As to `CSCC[C@H](NC(=O)[C@@H]1CCCN1C(=O)[C@H](CO)NC(=O)CNC(=O)[C@@H]1CCCN1C(=O)CNC(=O)[C@H](Cc1ccccc1)NC(=O)[C@H](CCC(N)=O)NC(=O)[C@@H](NC(=O)[C@H](Cc1c[nH]c2ccccc12)NC(=O)[C@H](Cc1c[nH]cn1)NC(=O)[C@@H](N)Cc1c[nH]c2ccccc12)C(C)C)C(=O)N[C@@H](Cc1ccc(O)cc1)C(=O)O` [compound 111] (H-WHWVQFGPGSPMY-OH; N-terminus and C-terminus assumed), the “Inhibition at 10 μM” value was less than 90%, the “Inhibition at 20 μM” value is reported as less than 90%, the “Inhibition at 50 μM” value is recorded as less than 90% and the “Inhibition at 100 μM” value was determined as 96.65%.
Turning to `CSCC[C@H](NC(=O)[C@@H]1CCCN1C(=O)[C@H](CCC(N)=O)NC(=O)CNC(=O)[C@@H]1CCCN1C(=O)[C@H](CCCCN)NC(=O)[C@H](CC(C)C)NC(=O)[C@H](CCCNC(=N)N)NC(=O)[C@H](CC(C)C)NC(=O)[C@H](Cc1ccccc1)NC(=O)[C@H](Cc1c[nH]cn1)NC(=O)[C@@H]1CCCN1)C(=O)N[C@@H](Cc1ccc(O)cc1)C(=O)O` [compound 112] (H-PHFLRLKPGQPMY-OH; N-terminus and C-terminus assumed), the “Inhibition at 50 μM” value was less than 90% and the “Inhibition at 100 μM” value is reported as 99.57%.
For the molecule `CSCC[C@H](NC(=O)[C@@H]1CCCN1C(=O)[C@H](CCC(N)=O)NC(=O)CNC(=O)[C@@H]1CCCN1C(=O)[C@H](CCCCN)NC(=O)[C@H](CC(C)C)NC(=O)[C@H](CC(N)=O)NC(=O)[C@H](CC(C)C)NC(=O)[C@H](CC(C)C)NC(=O)[C@H](Cc1c[nH]cn1)NC(=O)[C@@H](N)CCCCN)C(=O)N[C@@H](Cc1ccc(O)cc1)C(=O)O` [compound 113] (H-KHLLNLKPGQPMY-OH; N-terminus and C-terminus assumed), the “Inhibition at 50 μM” value is given as less than 90% and the “Inhibition at 100 μM” value was 98.44%.
